The source of these data is US7612089B2, “Tetrahydroisoquinolines as factor Xa inhibitors” (Portola Pharmaceuticals, Inc., priority 2004, dated 2009).

pIC50: −log10 of the molar value. Where only a bound is given, the exact number is not on record here.

This assay deals with T1, human plasma protein factor Xa (Homo sapiens, UniProt P00742).
T1 construct: The human plasma protein factor Xa was purchased; purchased Haematologic Technologies (Essex Junction, Vt.); host or cells: human plasma
Description: Factor Xa IC50 determination (cleavage of paranitroanilide substrate S-2765). Format: biochemical. The settings on record: fXa 1 nM, S2765 100 μM, Tris buffered saline pH 7.4, room temperature. The text has this:
This example illustrates methods for evaluating the compounds of the invention, along with results obtained for such assays. The in vitro and in vivo Factor Xa isoform activities of the inventive compounds can be determined by various procedures known in the art, such as a test for their ability to inhibit the activity of the Factor Xa isoform. […] The IC50 value is the concentration (in nM) of the compound required to provide 50% inhibition of Factor Xa isoform.
An in vitro assay for detecting and measuring inhibition activity against Factor Xa is as follows:
IC50 and Ki Determinations:
The substrate S-2765 (Z-D-Arg-Gly-Arg-pNA.HCl) was obtained from Diapharma (West Chester, Ohio).
The human plasma protein factor Xa was purchased from Haematologic Technologies (Essex Junction, Vt.).
All assays, which are performed in 96-well microtiter plates, measure proteolytic activity of the enzyme (factor Xa) by following cleavage of paranitroanilide substrate. The assay buffer used for proteolytic assays was Tris buffered saline (20 mM Tris, 150 mM NaCl, 5 mM CaCl2, 0.1% Bovine serum albumin (BSA), 5% Dimethly Sulfoxide (DMSO) pH 7.4). In a 96-well microtiter plate, inhibitor was serially diluted to give a range of concentrations from 0.01 nM to 10 μM (final). Duplicate sets of wells were assayed and control wells without inhibitor were included. Enzyme was added to each well, (fXa concentration=1 nM), the plate was shaken for 5 seconds and then incubated for 5 minutes at room temperature. S2765 was added (100 μM final) and the plate was shaken for 5 seconds (final liquid volume in each well was 200 μl). The degree of substrate hydrolysis was measured at 405 nm on a Thermomax plate reader (Molecular Devices, Sunnyvale, Calif.) for 2 minutes. The initial velocities (mOD/min), for each range of inhibitor concentrations, were fitted to a four parameter equation using Softmax data analysis software. The parameter C, derived from the resulting curve-fit, corresponded to the concentration for half maximal inhibition (IC50).

T1 sequence (P00742 235-488 limits assumed): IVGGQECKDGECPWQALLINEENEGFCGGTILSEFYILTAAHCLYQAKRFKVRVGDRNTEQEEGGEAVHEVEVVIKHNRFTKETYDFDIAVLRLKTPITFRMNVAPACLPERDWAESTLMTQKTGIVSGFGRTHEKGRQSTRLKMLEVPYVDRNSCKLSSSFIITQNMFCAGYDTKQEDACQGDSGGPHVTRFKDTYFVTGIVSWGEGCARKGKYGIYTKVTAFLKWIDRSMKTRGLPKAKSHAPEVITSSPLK
T1 sequence (P00742 41-179 partner limits assumed): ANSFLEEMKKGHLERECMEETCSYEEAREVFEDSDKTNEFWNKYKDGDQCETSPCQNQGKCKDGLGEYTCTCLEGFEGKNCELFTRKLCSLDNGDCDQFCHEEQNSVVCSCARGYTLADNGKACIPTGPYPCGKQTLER

A word on the pIC50: it is −log10 of the IC50, conventionally taken in molar units. A lower pIC50 goes with a high IC50. Compound `CN1CCN=C1c1ccc(NC(=O)[C@H]2Cc3ccccc3CN2C(=O)Nc2ccc(Cl)cc2)cc1` [3(R), (3R)-N-[4-(1-methyl-4,5-dihydro-1H-imidazol-2-yl)phenyl]-2N-(4-chlorophenylaminocarbonyl)-1,2,3,4-tetrahydroisoquinoline-3-carboxamide] showed a pIC50 of no less than 7.00.
As for `CN1CCN=C1c1ccc(NC(=O)[C@@H]2Cc3ccccc3CN2C(=O)Nc2ccc(Cl)cc2)cc1` [3(S), (3S)-N-[4-(1-methyl-4,5-dihydro-1H-imidazol-2-yl)phenyl]-2N-(4-chlorophenylaminocarbonyl)-1,2,3,4-tetrahydroisoquinoline-3-carboxamide], the figure is no less than 7.00.
The same measure for `CN1CCN=C1c1ccc(NC(=O)C2Cc3ccccc3CN2C(=O)Nc2ccc(Cl)cc2)cc1` (centres unmarked) [Example 1, N-[4-(1-methyl-4,5-dihydro-1H-imidazol-2-yl)phenyl]-2N-(4-chlorophenylaminocarbonyl)-1,2,3,4-tetrahydroisoquinoline-3-carboxamide]: no less than 7.00; for `O=C(Nc1ccc(-c2cccc[n+]2[O-])cc1)C1Cc2ccccc2CN1C(=O)Nc1ccc(Cl)cc1` (centres unmarked) [Example 2, N-[4-(1N-oxo-pyridin-2-yl)phenyl]-2N-(4-chlorophenylaminocarbonyl)-1,2,3,4-tetrahydroisoquinoline-3-carboxamide]: no less than 7.00.
In turn, `N=C(c1ccc(NC(=O)C2Cc3ccccc3CN2C(=O)Nc2ccc(Cl)cc2)cc1)N1CCCC1` (centres unmarked) [Example 4, N-[4-(pyrrolidinylimino)phenyl]-2N-(4-chlorophenylaminocarbonyl)-1,2,3,4-tetrahydroisoquinoline-3-carboxamide] showed a pIC50 of no less than 7.00.
As for `CN(C)C(=N)c1ccc(NC(=O)C2Cc3ccccc3CN2C(=O)Nc2ccc(Cl)cc2)cc1` (centres unmarked) [Example 5, N-[4-(dimethylaminoimino)phenyl]-2N-(4-chlorophenylaminocarbonyl)-1,2,3,4-tetrahydroisoquinoline-3-carboxamide], the figure is no less than 7.00.
`CN(C)C(=N)c1cccc(CNC(=O)C2Cc3ccccc3CN2C(=O)Nc2ccc(Cl)cc2)c1` (centres unmarked) [Example 6, N-[3-(dimethylaminoimino)benzyl]-2N-(4-chlorophenylaminocarbonyl)-1,2,3,4-tetrahydroisoquinoline-3-carboxamide] had a pIC50 of no more than 6.30.
As for `CN1CCN=C1c1cccc(CNC(=O)C2Cc3ccccc3CN2C(=O)Nc2ccc(Cl)cc2)c1` (centres unmarked) [Example 7, N-[3-(1-methyl-4,5-dihydro-1H-imidazol-2-yl)benzyl]-2N-(4-chlorophenylaminocarbonyl)-1,2,3,4-tetrahydroisoquinoline-3-carboxamide], the figure is no more than 6.30.
On to `O=C(Nc1ccc(C(=O)N2CCCC2)cc1)C1Cc2ccccc2CN1C(=O)Nc1ccc(Cl)cc1` (centres unmarked) [Example 8, N-[4-(pyrrolidinylcarbonyl)phenyl]-2N-(4-chlorophenylaminocarbonyl)-1,2,3,4-tetrahydroisoquinoline-3-carboxamide], for which the pIC50 was no less than 7.00.
As for `O=C(NCC1CCN(c2ccncc2)CC1)C1Cc2ccccc2CN1C(=O)Nc1ccc(Cl)cc1` (centres unmarked) [Example 9, N-[1-(pyridin-4-yl)piperidin-4-yl]methyl-2N-(4-chlorophenylaminocarbonyl)-1,2,3,4-tetrahydroisoquinoline-3-carboxamide], the figure is 6.30 to 7.00; as for `CN1CCCN(c2ccc(NC(=O)C3Cc4ccccc4CN3C(=O)Nc3ccc(Cl)cc3)cc2)CC1` (centres unmarked) [Example 10, N-[4-(4-methyl-homopiperazinyl)]phenyl-2N-(4-chlorophenylaminocarbonyl)-1,2,3,4-tetrahydroisoquinoline-3-carboxamide], no less than 7.00.
As for `CN1CCC(N2CCN(C(=O)C3Cc4ccccc4CN3C(=O)Nc3ccc(Cl)cc3)CC2)CC1` (centres unmarked) [Example 11, 4-(1-methylpiperidin-4-yl)piperazinyl 2N-(4-chlorophenylaminocarbonyl)-1,2,3,4-tetrahydroisoquinoline-3-carboxamide], the pIC50 was no less than 7.00.
The same measure for `CC(C)N1CCC(NC(=O)C2Cc3ccccc3CN2C(=O)Nc2ccc(Cl)cc2)CC1` (centres unmarked) [Example 12, N-(1-isopropylpiperidin-4-yl)2N-(4-chlorophenylaminocarbonyl)-1,2,3,4-tetrahydroisoquinoline-3-carboxamide]: no more than 6.30; for `CN(C)Cc1nccn1-c1ccc(NC(=O)C2Cc3ccccc3CN2C(=O)Nc2ccc(Cl)cc2)c(F)c1` (centres unmarked) [Example 13, N-[4-(2-dimethylaminomethyl-imidazol-1-yl)-2-fluorophenyl]-2N-(4-chlorophenylaminocarbonyl)-1,2,3,4-tetrahydroisoquinoline-3-carboxamide]: no less than 7.00.
As for `O=C(Nc1ccc(N2CCOCC2=O)cc1)C1Cc2ccccc2CN1C(=O)Nc1ccc(Cl)cc1` (centres unmarked) [Example 14, N-[4-(3-oxo-morpholin-4-yl)phenyl]-2N-(4-chlorophenylaminocarbonyl)-1,2,3,4-tetrahydroisoquinoline-3-carboxamide], the figure is no less than 7.00; as for `O=C(Nc1ccc(C(=O)N2CCSC2)cc1)C1Cc2ccccc2CN1C(=O)Nc1ccc(Cl)cc1` (centres unmarked) [Example 15, N-[4-(3-thiazolidinylcarbonyl)phenyl]-2N-(4-chlorophenylaminocarbonyl)-1,2,3,4-tetrahydroisoquinoline-3-carboxamide], no less than 7.00.
Take `O=C(Nc1ccc(C(=O)N2CCOC2)cc1)C1Cc2ccccc2CN1C(=O)Nc1ccc(Cl)cc1` (centres unmarked) [Example 16, N-[4-(3-oxazolidinylcarbonyl)phenyl]-2N-(4-chlorophenylaminocarbonyl)-1,2,3,4-tetrahydroisoquinoline-3-carboxamide]: the pIC50 was no less than 7.00.
`CN(c1ccncc1)c1ccc(NC(=O)C2Cc3ccccc3CN2C(=O)Nc2ccc(Cl)cc2)cc1` (centres unmarked) [Example 17, N-[4-(N-methyl-N-pyridin-4-yl-amino)phenyl]-2N-(4-chlorophenylaminocarbonyl)-1,2,3,4-tetrahydroisoquinoline-3-carboxamide] gave a pIC50 of no less than 7.00.
`Cc1cccc2c1CC(C(=O)Nc1ccc(C3=NCCN3C)cc1)N(C(=O)Nc1ccc(Cl)cc1)C2` (centres unmarked) [Example 18, N-[4-(1-methyl-4,5-dihydro-1H-imidazol-2-yl)phenyl]-2N-(4-chlorophenylaminocarbonyl)-5-methyl-1,2,3,4-tetrahydroisoquinoline-3-carboxamide]: the pIC50 was no less than 7.00.
With `Cc1cccc2c1CC(C(=O)Nc1ccc(C(=N)N3CCCC3)cc1)N(C(=O)Nc1ccc(Cl)cc1)C2` (centres unmarked) [Example 19, N-[4-(pyrrolidinylimino)phenyl]-2N-(4-chlorophenylaminocarbonyl)-5-methyl-1,2,3,4-tetrahydroisoquinoline-3-carboxamide], the pIC50 was no less than 7.00.
The same measure for `Cc1cccc2c1CC(C(=O)Nc1ccc(C(=N)N(C)C)cc1)N(C(=O)Nc1ccc(Cl)cc1)C2` (centres unmarked) [Example 20, N-[4-(dimethylaminoimino)phenyl]-2N-(4-chlorophenylaminocarbonyl)-5-methyl-1,2,3,4-tetrahydroisoquinoline-3-carboxamide]: no less than 7.00; for `COc1cc2c(cc1OC)CN(C(=O)Nc1ccc(Cl)cc1)[C@H](C(=O)Nc1ccc(C3=NCCN3C)cc1)C2` [Example 21, (3S)-N-[4-(1-methyl-4,5-dihydro-1H-imidazol-2-yl)phenyl]-2N-(4-chlorophenylaminocarbonyl)-6,7-dimethoxy-1,2,3,4-tetrahydroisoquinoline-3-carboxamide]: no more than 6.30; for `COc1cc2c(cc1OC)CN(C(=O)Nc1ccc(Cl)cc1)[C@H](C(=O)Nc1ccc(C(=N)N3CCCC3)cc1)C2` [Example 22, (3S)-N-[4-(pyrrolidinylimino)phenyl]-2N-(4-chlorophenylaminocarbonyl)-6,7-dimethoxy-1,2,3,4-tetrahydroisoquinoline-3-carboxamide]: 6.30 to 7.00.
The same measure for `COc1cc2c(cc1OC)CN(C(=O)Nc1ccc(Cl)cc1)[C@H](C(=O)Nc1ccc(C(=N)N(C)C)cc1)C2` [Example 23, (3S)-N-[4-(dimethylaminoimino)phenyl]-2N-(4-chlorophenylaminocarbonyl)-6,7-diemthoxy-1,2,3,4-tetrahydroisoquinoline-3-carboxamide]: no more than 6.30; for `CN1CCN=C1c1ccc(NC(=O)C2Cc3cc(O)ccc3CN2C(=O)Nc2ccc(Cl)cc2)cc1` (centres unmarked) [Example 24, N-[4-(1-methyl-4,5-dihydro-1H-imidazol-2-yl)phenyl]-2N-(4-chlorophenylaminocarbonyl)-6-hydroxy-1,2,3,4-tetrahydroisoquinoline-3-carboxamide]: no less than 7.00; for `CN1CCN=C1c1ccc(NC(=O)C2Cc3sccc3CN2C(=O)Nc2ccc(Cl)cc2)cc1` (centres unmarked) [Example 25, N-[4-(1-methyl-4,5-dihydro-1H-imidazol-2-yl)phenyl]-5N-(4-chlorophenylaminocarbonyl)-4,5,6,7-tetrahydro-thieno[3,2-c]pyridine-6-carboxamide]: no less than 7.00.
